Activity calls are given as the source filed them.
Assays:
[1] = biological target: Mitogen-activated protein kinase kinase kinase kinase 4 (Homo sapiens, UniProt O95819); type: functional
[2] = biological target: Mitogen-activated protein kinase kinase kinase kinase 2 (Homo sapiens, UniProt Q12851); type: functional;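 also: measured as one member of a kinome-wide kinase panel, with MAP4K2 as the panel entry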
[3] = biological target: Casein kinase I isoform delta (Homo sapiens, UniProt P48730); type: functional;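 also: measured as one member (CSNK1D) of a kinome panel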
[4] = biological target: Protein kinase C iota type (Homo sapiens, UniProt P41743); type: functional;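 also: measured within a kinome-wide kinase panel, PRKCI as panel member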
[5] = biological target: Testis-specific serine/threonine-protein kinase 1 (Homo sapiens, UniProt Q9BXA7); type: functional
[6] = biological target: Casein kinase II subunit alpha (Homo sapiens, UniProt P68400); type: functional
[7] = biological target: Protein kinase C zeta type (Homo sapiens, UniProt Q05513); type: functional;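 also: measured as one member of a broad kinase profiling panel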
[8] = biological target: Mitogen-activated protein kinase 13 (Homo sapiens, UniProt O15264); type: functional
[9] = biological target: Tyrosine-protein kinase Fyn (Homo sapiens, UniProt P06241); type: functional
[10] = biological target: Maternal embryonic leucine zipper kinase (Homo sapiens, UniProt Q14680); type: functional
Sequence of Maternal embryonic leucine zipper kinase (Q14680 whole entry): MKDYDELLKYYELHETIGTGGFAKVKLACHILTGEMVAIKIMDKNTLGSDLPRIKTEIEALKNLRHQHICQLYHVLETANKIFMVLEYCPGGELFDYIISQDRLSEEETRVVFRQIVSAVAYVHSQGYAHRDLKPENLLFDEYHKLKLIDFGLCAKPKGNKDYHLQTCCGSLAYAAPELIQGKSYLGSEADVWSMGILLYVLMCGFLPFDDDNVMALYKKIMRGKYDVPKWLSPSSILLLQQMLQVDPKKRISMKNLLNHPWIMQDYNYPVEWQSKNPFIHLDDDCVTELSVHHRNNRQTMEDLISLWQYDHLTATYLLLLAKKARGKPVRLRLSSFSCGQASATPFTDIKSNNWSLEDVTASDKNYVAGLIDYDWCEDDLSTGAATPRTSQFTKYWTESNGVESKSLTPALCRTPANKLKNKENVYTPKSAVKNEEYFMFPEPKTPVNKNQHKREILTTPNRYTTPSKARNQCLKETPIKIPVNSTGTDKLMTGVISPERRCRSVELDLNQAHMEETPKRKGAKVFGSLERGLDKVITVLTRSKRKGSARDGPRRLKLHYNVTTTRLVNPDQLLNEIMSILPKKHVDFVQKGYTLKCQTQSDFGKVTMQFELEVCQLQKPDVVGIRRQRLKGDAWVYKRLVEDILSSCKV

[11] = biological target: Receptor tyrosine-protein kinase erbB-4 (Homo sapiens, UniProt Q15303); type: functional;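 also: ERBB4 member of a kinome-wide kinase profiling panel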
[12] = biological target: cGMP-dependent protein kinase 1 (Homo sapiens, UniProt Q13976); type: functional;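 also: value from a kinome panel screen with PRKG1 as the panel member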
Sequence of cGMP-dependent protein kinase 1 (Q13976 whole entry): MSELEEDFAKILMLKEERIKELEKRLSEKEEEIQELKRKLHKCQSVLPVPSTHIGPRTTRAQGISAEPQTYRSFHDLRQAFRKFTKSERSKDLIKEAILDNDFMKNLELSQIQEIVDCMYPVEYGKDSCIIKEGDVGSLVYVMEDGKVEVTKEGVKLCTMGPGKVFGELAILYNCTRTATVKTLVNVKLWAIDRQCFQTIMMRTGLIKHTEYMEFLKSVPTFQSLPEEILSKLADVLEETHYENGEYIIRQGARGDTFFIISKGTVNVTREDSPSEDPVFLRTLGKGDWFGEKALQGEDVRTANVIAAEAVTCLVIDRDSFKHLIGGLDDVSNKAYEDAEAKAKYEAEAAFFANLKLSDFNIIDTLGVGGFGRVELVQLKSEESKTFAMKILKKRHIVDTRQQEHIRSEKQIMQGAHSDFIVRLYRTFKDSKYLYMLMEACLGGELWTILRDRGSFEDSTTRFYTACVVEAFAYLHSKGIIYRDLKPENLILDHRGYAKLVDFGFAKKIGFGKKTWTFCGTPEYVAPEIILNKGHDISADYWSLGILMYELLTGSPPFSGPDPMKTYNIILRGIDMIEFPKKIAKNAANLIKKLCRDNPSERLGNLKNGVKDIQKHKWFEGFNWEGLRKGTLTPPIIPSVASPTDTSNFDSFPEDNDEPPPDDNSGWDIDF

[13] = biological target: Glycogen synthase kinase-3 alpha (Homo sapiens, UniProt P49840); type: functional;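 also: GSK3A result taken from a broad kinome-wide kinase panel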
Sequence of Glycogen synthase kinase-3 alpha (P49840 whole entry): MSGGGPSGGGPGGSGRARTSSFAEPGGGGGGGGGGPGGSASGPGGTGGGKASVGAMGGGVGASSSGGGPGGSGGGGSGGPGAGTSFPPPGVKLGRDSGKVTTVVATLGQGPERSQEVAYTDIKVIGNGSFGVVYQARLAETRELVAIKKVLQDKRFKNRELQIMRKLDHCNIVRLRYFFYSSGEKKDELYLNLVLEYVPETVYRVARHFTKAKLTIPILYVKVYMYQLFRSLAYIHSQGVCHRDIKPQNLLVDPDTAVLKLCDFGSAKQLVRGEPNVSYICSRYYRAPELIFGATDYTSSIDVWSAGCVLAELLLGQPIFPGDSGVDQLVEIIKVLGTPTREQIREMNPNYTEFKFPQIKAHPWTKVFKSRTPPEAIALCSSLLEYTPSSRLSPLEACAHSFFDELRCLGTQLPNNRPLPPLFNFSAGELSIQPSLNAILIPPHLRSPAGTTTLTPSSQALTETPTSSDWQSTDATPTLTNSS

[14] = biological target: Testis-specific serine/threonine-protein kinase 2 (Homo sapiens, UniProt Q96PF2); type: functional;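 also: part of the Navigating the Kinome panel, target entry STK22B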
Sequence of Testis-specific serine/threonine-protein kinase 2 (Q96PF2 whole entry): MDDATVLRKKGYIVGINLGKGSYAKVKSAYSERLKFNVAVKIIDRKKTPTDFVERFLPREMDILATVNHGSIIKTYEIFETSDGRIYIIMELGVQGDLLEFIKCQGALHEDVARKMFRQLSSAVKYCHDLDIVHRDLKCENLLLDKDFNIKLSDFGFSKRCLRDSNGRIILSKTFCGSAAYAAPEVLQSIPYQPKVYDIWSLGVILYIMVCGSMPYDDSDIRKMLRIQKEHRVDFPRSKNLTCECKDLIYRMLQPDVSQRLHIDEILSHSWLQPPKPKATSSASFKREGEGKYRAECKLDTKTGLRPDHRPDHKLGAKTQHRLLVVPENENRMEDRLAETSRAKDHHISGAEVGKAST

[15] = biological target: Tyrosine-protein kinase Lck (Homo sapiens, UniProt P06239); type: functional;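 also: lck was assayed as one member of a kinase panel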
[16] = biological target: Serine/threonine-protein kinase 3 (Homo sapiens, UniProt Q13188); type: functional;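 also: measured as one member of a kinome-wide kinase panel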
[17] = biological target: MAP kinase-interacting serine/threonine-protein kinase 2 (Homo sapiens, UniProt Q9HBH9); type: functional
[18] = biological target: Serine/threonine-protein kinase 17A (Homo sapiens, UniProt Q9UEE5); type: functional
[19] = biological target: RAC-alpha serine/threonine-protein kinase (Homo sapiens, UniProt P31749); type: functional;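 also: AKT1 affinity measured as one member of a kinome-wide kinase profiling panel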
Sequence of RAC-alpha serine/threonine-protein kinase (P31749 whole entry): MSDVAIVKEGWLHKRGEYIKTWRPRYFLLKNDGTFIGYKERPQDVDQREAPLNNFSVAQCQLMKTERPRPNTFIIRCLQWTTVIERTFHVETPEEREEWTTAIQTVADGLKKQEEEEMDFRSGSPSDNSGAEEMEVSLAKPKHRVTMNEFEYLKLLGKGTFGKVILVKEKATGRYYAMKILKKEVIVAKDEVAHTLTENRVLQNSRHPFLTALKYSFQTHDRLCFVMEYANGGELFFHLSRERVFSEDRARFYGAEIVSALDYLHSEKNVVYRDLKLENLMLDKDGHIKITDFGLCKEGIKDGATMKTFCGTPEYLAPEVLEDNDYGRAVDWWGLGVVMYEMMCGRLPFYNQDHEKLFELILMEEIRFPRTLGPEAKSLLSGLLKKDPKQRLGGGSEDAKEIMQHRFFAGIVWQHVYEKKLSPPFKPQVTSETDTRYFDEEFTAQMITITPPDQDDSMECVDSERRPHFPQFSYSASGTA

[20] = biological target: Serine/threonine-protein kinase PLK1 (Homo sapiens, UniProt P53350); type: functional;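 also: PLK1 measured as one member of a kinome-wide profiling panel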
Sequence of Serine/threonine-protein kinase PLK1 (P53350 whole entry): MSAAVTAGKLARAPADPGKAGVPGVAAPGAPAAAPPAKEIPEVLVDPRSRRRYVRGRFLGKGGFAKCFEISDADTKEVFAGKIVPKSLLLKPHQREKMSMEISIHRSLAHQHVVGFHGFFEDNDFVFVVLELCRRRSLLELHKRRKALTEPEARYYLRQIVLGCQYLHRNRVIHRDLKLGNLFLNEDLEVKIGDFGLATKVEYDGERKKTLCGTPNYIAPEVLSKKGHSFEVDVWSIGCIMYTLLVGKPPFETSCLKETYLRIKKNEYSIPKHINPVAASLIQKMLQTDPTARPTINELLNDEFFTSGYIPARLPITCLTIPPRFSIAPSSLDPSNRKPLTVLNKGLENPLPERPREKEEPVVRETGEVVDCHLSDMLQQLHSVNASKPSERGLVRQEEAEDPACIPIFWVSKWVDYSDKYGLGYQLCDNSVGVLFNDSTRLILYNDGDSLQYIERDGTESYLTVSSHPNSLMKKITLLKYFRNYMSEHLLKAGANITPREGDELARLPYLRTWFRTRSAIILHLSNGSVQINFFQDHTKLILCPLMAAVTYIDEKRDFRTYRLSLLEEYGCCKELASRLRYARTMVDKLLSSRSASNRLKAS

[21] = biological target: Tyrosine-protein kinase Lyn (Homo sapiens, UniProt P07948); type: functional;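 also: lyn as one member of a kinase panel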
Misshapen-like kinase 1 = Misshapen-like kinase 1 (Homo sapiens, UniProt Q8N4C8); type: functional;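 also: kinome panel screen with MINK as the panel member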
Caspase-6 = biological target: T1, Caspase-6 (Homo sapiens, UniProt P55212); experiment: inhibition of CASP6 peptide cleavage – biochemical, VEID-R110 fluorescence, cherry-pick, dose response (AID 720632)
T1 sequence (P55212 whole entry): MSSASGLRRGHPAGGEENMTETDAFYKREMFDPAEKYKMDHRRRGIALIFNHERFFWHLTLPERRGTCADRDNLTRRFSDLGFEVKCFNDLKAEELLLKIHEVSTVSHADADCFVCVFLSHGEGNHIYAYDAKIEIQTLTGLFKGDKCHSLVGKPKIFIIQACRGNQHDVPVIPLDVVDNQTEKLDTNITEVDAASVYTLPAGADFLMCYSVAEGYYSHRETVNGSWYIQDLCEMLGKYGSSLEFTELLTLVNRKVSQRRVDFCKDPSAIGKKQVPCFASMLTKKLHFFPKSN

Caspase-9 = Caspase-9 (Homo sapiens, UniProt P55211); experiment: inhibitors of purified CASP9 protease – biochemical, fluorescence, plate reader, cherry-picked samples, selectivity assay for caspase-6 inhibitor project, dose response (AID 743293)
Sequence of Caspase-9 (P55211 1-315 limits assumed): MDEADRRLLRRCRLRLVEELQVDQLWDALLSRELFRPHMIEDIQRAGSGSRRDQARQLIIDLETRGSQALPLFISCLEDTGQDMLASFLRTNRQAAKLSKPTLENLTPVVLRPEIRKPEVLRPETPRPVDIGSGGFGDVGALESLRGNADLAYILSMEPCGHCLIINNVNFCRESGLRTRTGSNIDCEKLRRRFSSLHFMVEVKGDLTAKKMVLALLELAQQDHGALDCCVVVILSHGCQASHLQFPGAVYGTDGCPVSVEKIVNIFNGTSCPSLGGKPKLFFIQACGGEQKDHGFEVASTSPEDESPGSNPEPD
Sequence of Caspase-9 (P55211 331-416 limits assumed): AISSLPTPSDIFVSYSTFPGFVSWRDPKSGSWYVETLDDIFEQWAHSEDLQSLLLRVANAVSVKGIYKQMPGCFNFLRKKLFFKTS

[22] = biological target: T2, Sentrin-specific protease 8 (Homo sapiens, UniProt Q96LD8); experiment: inhibition of human SENP8 cleavage activity – biochemical, luminescence, SAR follow-up (AID 504501); type: functional
T2 sequence (Q96LD8 whole entry): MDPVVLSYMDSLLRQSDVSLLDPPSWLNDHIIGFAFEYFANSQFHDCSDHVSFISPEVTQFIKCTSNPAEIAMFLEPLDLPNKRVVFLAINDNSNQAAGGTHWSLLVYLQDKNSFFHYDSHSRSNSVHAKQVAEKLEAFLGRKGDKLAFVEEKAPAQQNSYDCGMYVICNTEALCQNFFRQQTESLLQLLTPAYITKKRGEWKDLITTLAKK

[23] = biological target: T3, Replicative DNA helicase DnaB (Mycobacterium tuberculosis, UniProt P9WMR3); experiment: DnaB intein splicing inhibitors, dose response, biochemical, cell-free fluorescence (AID 449749); type: functional
T3 sequence (P9WMR3 whole entry): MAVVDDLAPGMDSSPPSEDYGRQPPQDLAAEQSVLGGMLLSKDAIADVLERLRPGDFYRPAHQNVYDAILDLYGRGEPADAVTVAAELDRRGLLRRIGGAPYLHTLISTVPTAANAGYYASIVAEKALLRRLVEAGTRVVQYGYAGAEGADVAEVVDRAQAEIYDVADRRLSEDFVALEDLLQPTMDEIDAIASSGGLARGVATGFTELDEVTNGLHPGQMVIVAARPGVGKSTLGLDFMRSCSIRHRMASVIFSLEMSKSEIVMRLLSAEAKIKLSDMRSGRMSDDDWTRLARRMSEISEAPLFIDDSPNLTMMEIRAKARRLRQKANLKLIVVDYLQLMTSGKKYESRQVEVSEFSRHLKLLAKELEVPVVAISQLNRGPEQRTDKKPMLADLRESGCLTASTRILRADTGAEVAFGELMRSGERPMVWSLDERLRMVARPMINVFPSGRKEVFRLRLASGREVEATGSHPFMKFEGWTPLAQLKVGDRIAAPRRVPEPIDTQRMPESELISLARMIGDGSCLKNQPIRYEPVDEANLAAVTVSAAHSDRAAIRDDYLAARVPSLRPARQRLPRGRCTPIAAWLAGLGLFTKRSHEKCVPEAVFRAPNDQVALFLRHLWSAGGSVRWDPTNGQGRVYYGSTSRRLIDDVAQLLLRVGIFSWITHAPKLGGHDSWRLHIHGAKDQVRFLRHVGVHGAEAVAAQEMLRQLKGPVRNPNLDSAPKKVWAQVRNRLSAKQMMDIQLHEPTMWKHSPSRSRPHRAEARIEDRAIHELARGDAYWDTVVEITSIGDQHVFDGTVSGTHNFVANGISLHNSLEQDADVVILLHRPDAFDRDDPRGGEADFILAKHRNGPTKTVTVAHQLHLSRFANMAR

Sequence of Mitogen-activated protein kinase kinase kinase kinase 4 (O95819 whole entry): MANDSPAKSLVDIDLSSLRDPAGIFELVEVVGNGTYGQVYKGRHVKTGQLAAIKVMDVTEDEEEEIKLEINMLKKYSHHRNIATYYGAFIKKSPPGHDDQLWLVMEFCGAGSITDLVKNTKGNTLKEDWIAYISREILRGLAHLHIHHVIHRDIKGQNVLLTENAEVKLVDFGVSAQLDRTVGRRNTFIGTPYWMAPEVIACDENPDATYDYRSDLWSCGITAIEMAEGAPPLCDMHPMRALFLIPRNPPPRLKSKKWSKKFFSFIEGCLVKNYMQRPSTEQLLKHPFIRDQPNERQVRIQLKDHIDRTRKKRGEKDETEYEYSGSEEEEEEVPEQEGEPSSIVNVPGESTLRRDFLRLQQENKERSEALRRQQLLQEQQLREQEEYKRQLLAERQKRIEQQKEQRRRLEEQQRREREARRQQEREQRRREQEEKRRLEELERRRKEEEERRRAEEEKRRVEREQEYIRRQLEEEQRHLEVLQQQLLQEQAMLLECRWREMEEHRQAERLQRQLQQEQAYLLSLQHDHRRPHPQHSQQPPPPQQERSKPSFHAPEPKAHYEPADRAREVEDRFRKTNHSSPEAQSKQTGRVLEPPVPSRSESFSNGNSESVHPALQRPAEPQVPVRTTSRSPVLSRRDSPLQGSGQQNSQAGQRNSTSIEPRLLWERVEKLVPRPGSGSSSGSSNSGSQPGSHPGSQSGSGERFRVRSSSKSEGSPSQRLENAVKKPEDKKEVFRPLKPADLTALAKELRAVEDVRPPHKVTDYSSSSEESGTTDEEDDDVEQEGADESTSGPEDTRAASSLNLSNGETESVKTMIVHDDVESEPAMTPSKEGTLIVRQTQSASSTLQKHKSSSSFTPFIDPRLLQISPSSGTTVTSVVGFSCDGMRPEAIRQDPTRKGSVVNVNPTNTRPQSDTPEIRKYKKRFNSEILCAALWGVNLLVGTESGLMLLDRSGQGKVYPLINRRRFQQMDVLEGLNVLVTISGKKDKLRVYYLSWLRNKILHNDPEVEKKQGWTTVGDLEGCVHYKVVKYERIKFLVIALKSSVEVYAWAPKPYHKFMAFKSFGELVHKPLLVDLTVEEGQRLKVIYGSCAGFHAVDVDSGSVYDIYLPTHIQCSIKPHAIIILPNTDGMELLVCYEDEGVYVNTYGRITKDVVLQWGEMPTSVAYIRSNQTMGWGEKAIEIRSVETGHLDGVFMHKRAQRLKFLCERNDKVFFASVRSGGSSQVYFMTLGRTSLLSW

Oc1c2ccccc2c2c3c(cccc13)N=N2 [SP-600125]
inactive: Ki [4] > 5.01 µM | Ki [5] > 1.58 µM | Ki [7] > 7.94 µM | Ki [8] > 7.94 µM | Ki [9] > 0.794 µM | Ki [12] > 2 µM | Ki [14] > 1.58 µM | Ki [19] > 7.94 µM | Ki [20] > 7.94 µM
active: Ki [1] 0.316 µM | Ki [2] 0.0501 µM | Ki [3] 0.0316 µM | Ki [6] 0.501 µM | Ki [10] 0.398 µM | Ki [11] 3.98 µM | Ki [13] 1.26 µM | Ki [15] 2 µM | Ki [16] 0.316 µM | Ki [17] 0.316 µM | Ki [18] 0.0398 µM | Ki [21] 1 µM | Ki (Misshapen-like kinase 1) 0.2 µM

O=C(COC(=O)c1ccc([N+](=O)[O-])s1)Nc1cccc(S(=O)(=O)/N=C2/CCCCCN2)c1
active: AC50 (Caspase-6) 4.57 µM | AC50 (Caspase-9) 30.2 µM

COc1ccc(C(C[N+](=O)[O-])c2c(C)[nH]n(-c3ccccc3)c2=O)cc1 (stereo unspecified)
active: IC50 [22] 28.1 µM | AC50 [23] 3 µM
